One experiment concerns E. ocellatus venom. Description: in vivo preincubation model of envenoming (i.v.). Also noted: species or system CD-1 mice. On the procedure: All animal experiments were conducted using protocols approved by the Animal Welfare and Ethical Review Boards of the Liverpool School of Tropical Medicine and the University of Liverpool, and performed in specific pathogen-free conditions under licensed approval (PPL #4003718 and #P5846F90) of the UK Home Office and in accordance with the Animal [Scientific Procedures] Act 1986 and institutional guidance on animal care. All experimental animals (18–20 g [4–5 weeks old], male, CD-1 mice, Charles River, UK) were housed in groups of five with environmental enrichment, water and food ad libitum and their health monitored daily during acclimatization. The experimental design was based upon 3R-refined WHO-recommended protocols[28],[41], with animals randomized and observers being blinded to the experimental condition. The median lethal doses (venom LD50) used for E. ocellatus (Nigeria), E. carinatus (India), B. asper (Costa Rica), D. russelii (Sri Lanka) and B. arietans (Nigeria) venoms were previously determined[25],[41],[44],[45].
All experimental doses were prepared to a volume of 200 µl in PBS and incubated at 37 °C for 30 min prior to their intravenous injection via the tail vein. Animals were monitored for 6 h, and euthanized via rising concentrations of CO2 upon observation of previously defined humane end points that are predicators of lethality (e.g., seizure, pulmonary distress, paralysis, hemorrhage)[28]. Deaths, time of death, and survivors were recorded; where death/time of death actually represents the implementation of euthanasia based on defined humane end points.
For all experimental animals described above, blood samples were collected via cardiac puncture immediately post-euthanasia. Plasma was separated by centrifugation at 400 × g for 10 min and stored at −80 °C. We assessed the levels of thrombin-antithrombin complexes (TAT) and soluble thrombomodulin using mouse ELISA Kits (ab137994 and ab209880, Abcam), following the manufacturer’s protocol. All available plasma samples (some were unobtainable via cardiac puncture due to extensive internal hemorrhage) were assessed if the time of death within the group varied, whereas three samples were randomly chosen if the time of death was the same (e.g., either very rapid death within 2 min, or survival until the end of the experiment [360 min or 24 h]). The resulting data was plotted as the median of duplicate measurements for each animal and is presented with standard deviations (SDs).

In experiment [1] the test system is pro- and anticoagulant fractions of D. russelii venom. Description: nanofractionation with plasma coagulation assay. Format: biochemical, Daboia russelii. As to conditions: nanofractionated D. russelii venom; inhibitor 0.0064 to 20 µM. As for the experimental part: Fifty microlitres of venom solution (D. russelii; 1 mg/ml) was injected into a Shimadzu LC-2010 system with nanofractionation in parallel. Separation was performed on a Waters XBridge reversed-phase C18 column (250 × 4.6 mm^2 column with 3.5 μm pore-size) at 30 °C. The total flow rate of the mobile phase solution was 0.5 ml/min with eluent A (98% H2O, 2% acetonitrile [ACN], 0.1% formic acid [FA]) and eluent B (98% ACN, 2% H2O, 0.1% FA). Liquid chromatography gradients consisted of a linear increase of mobile phase B from 0 to 50% in 20 min, followed by a linear increase to 90% B in 4 min, then isocratic at 90% B for 5 min, after which the percentage of mobile phase B was decreased from 90 to 0% in 1 min, followed by 10 min at 0% B to re-equilibrate. The effluent was split in a 1:9 ratio of which the 10% fraction was sent to a Shimadzu SPD-M20A prominence diode array detector and the 90% fraction was directed to a nanofractionation collector which dispensed the fractions into transparent 384-well plates (F-bottom, rounded square well, polystyrene, without lid, clear, non-sterile; Greiner Bio One, Alphen aan den Rijn, The Netherlands) at a resolution of 6 s/well. The collector used was either a commercially available FractioMate^TM nanofractionator (SPARK-Holland & VU, Netherlands, Emmen & Amsterdam) controlled by FractioMator software v1.0 (Spark-Holland, The Netherlands, Emmen) or a modified Gilson 235P autosampler controlled by in-house written software Ariadne v1.8 (VU Amsterdam). The well plates with venom fractions were then dried overnight in a Christ Rotational Vacuum Concentrator (RVC 2 − 33 CD plus, Zalm en Kipp, Breukelen, The Netherlands) equipped with a cooling trap, and maintained at −80 °C during operation. The freeze-dried plates were then stored at −80 °C prior to bioassaying.
The final assay concentrations of the inhibitors tested in the assay were 20, 4, 0.8, 0.16, 0.032, and 0.0064 µM. The plates were then incubated for 30 min at room temperature, and during this time bovine plasma (Sterile Filtered, Biowest, Nuaille, France) was defrosted in a water bath and centrifuged for 4 min at 805 × g prior to use. […] The plate was then read immediately for absorbance kinetically for 100 min at 595 nm at 25 °C using a Varioskan Flash Multimode Reader (Thermo Fisher Scientific, Ermelo, The Netherlands). The obtained results were normalized by dividing the slope measured in each well by the median of all slope values across the plate, and the processed coagulation chromatograms were plotted to visualize very fast coagulation, medium increased coagulation and anticoagulation, as previously described.

Turning to `CNC(=O)[C@@H](NC(=O)[C@H](CC(C)C)[C@H](O)C(=O)NO)C(C)(C)C` [marimastat], the “animals surviving the 6 h experiment (groups of five)” value in the experiment on E. ocellatus venom (45 µg E. ocellatus venom preincubated with 60 µg inhibitor/mouse, i.v.) was “four”. Besides, the “protection against venom-induced lethality” value in the experiment on E. ocellatus venom (45 µg E. ocellatus venom preincubated with 60 µg of each drug, i.v., 6 h) was “prolonged the survival”. Also, the “thrombin-antithrombin (TAT) levels, range in group” value in the experiment on E. ocellatus venom (plasma after euthanasia, E. ocellatus venom + 60 µg of each drug, venom-only mean 1127.3, normal mice 10.2–15.9) lay in the range of 231.2 to 267.9 ng/mL. In experiment [1], the “inhibition of anticoagulant venom fractions” value is given as “not neutralized” and the “inhibition of procoagulant venom fractions” value is listed as “effectively inhibited in a dose-dependent manner”.

Source of the values: article PMC7738508, “A therapeutic combination of two small molecule toxin inhibitors provides broad preclinical efficacy against viper snakebite” (Nature Communications, 2020).
